From PubChem BioAssay (NCI)
Values joined by “and” are separate entries in the source; they are usually repeats but may differ in a detail not shown here. Equal values may be shown once.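 Results reflect a 48-hour exposure of cells in 96-well plates to compound at five concentrations. GI50 = concentration required for 50% inhibition of growth. TGI denotes the concentration required for complete inhibition of growth.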

Columns and labels:
Assay in all cases: growth of human tumour cells (NCI), 48 h
MDA-N = test system: MDA-N
RXF-631 renal = test system: RXF-631 renal
DMS 273 small cell lung = test system: DMS 273 small cell lung
HOP-18 NSCLC = test system: HOP-18 NSCLC
DMS 114 small cell lung = test system: DMS 114 small cell lung
SNB-78 CNS = test system: SNB-78 CNS
KM20L2 colon = test system: KM20L2 colon
M19-MEL melanoma = test system: M19-MEL melanoma
XF 498 CNS = test system: XF 498 CNS

Row | SMILES | TGI (MDA-N) | TGI (RXF-631 renal) [µM] | TGI (DMS 273 small cell lung) [µM] | TGI (HOP-18 NSCLC) [µM] | TGI (DMS 114 small cell lung) [µM] | TGI (SNB-78 CNS) [µM] | TGI (KM20L2 colon) [µM] | TGI (M19-MEL melanoma) [µM] | TGI (XF 498 CNS) [µM] | also measured
1 | O=C(O)/C=C\C(=O)Nc1ccc2c(c1)C(=O)c1cc(F)ccc1-2 | > 100 µM | – | – | – | – | – | – | – | – | –
2 | ClC[Si]12OCCN(CCO1)CCO2 | – | > 100 | > 100 | > 100 | > 100 | > 100 | – | – | – | –
3 | S=C(N/N=C(/c1ccccc1)c1ccccn1)Nc1cccc(Cl)c1 | 7.35 µM and 6.85 µM | – | – | – | – | – | – | – | – | GI50 (MDA-N): 1.14 µM
4 | CN1CCCCC1CCN1c2ccccc2Sc2ccc(S(C)=O)cc21 (stereo not given) | > 100 µM | – | – | – | – | – | – | – | – | –
5 | COc1ccc(CC2C3=C(CCCC3)CCN2C)cc1 (stereo not given) | > 100 µM | – | – | – | – | – | – | – | – | –
6 | COC(=O)C1C2CCCN2OC1(C)CO (stereo not given) | > 100 µM | – | – | – | – | – | – | – | – | –
7 | CN(C)/C=N/c1nc2ncn(CCOC(=O)c3ccccc3)c2c(=O)[nH]1 | – | > 100 | > 100 | > 100 | > 100 | > 100 | > 100 | > 100 | – | –
8 | Cc1nc2cc(N)c(Cl)cc2[nH]1 | > 100 µM | – | – | – | – | – | – | – | – | –
9 | N#CC1=C(c2ccccc2)C(O)(c2ccccc2)NC1=O (stereo not given) | – | > 100 | > 100 | > 100 | > 100 | – | > 100 | > 100 | > 100 | –
10 | CC(Oc1ccc2cc(C(=O)c3ccccc3)c(=O)oc2c1)C(=O)O (stereo not given) | – | > 100 | – | > 100 | > 100 | > 100 | > 100 | > 100 | > 100 | –
11 | CC([O-])C(=O)[O-].NCC1CCC1CN.[Pt+4] (stereo not given) | > 10 µM | – | – | – | – | – | – | – | – | GI50 (MDA-N): > 10 µM
12 | COc1ccc(C(=O)O)c(Cc2ccc3ccccc3c2)c1 | – | – | > 100 | > 100 | > 100 | > 100 | > 100 | > 100 | > 100 | –
13 | O=C1c2ccccc2C(=O)c2c1ccc1c2OCO1 | > 100 µM | – | – | – | – | – | – | – | – | –
14 | CCN(CC)CC(O)C1CCC(c2ccccc2)CC1 (stereo not given) | 41.8 µM | – | – | – | – | – | – | – | – | –
15 | O=C1C(N2C(=O)c3ccccc3C2=O)CN1C(COCc1ccccc1)c1ccc(OCc2ccccc2)cc1 (stereo not given) | – | – | > 100 | – | > 100 | > 100 | > 100 | > 100 | > 100 | –
16 | c1ccc(C2N3CCCCC3[C@@H]3c4[nH]c5ccccc5c4CCN23)cc1 (stereo not given in full) | – | – | > 100 | > 100 | > 100 | > 100 | > 100 | > 100 | > 100 | –
17 | O=[N+]([O-])c1ccc(-c2cn(-c3ccc(Cl)cc3)cn2)cc1 | > 100 µM | – | – | – | – | – | – | – | – | –
18 | COc1ccc(/C(C)=N/NC(N)=S)c(OC)c1 | – | > 100 | – | > 100 | > 100 | > 100 | > 100 | > 100 | > 100 | –
19 | C=C1C(=O)OC2/C=C(\C)C3OC3/C=C(/C(=O)OC)C(OC(C)=O)C(OC(=O)C(C)(O)C(C)OC(C)=O)C12 (stereo not given) | 69.1 µM | 19.6 | 10.6 | – | 4.01 | 12.4 | – | 22.4 | 5.6 | –
20 | COc1cc(-c2cc(CCC(=O)Nc3ccccc3[N+](=O)[O-])n(-c3ccc([N+](=O)[O-])cc3[N+](=O)[O-])n2)ccc1O | – | > 100 | > 10 | > 10 | > 100 | > 100 | > 100 | > 100 | > 100 | GI50 (RXF-631 renal): > 100 µM; GI50 (KM20L2 colon): > 100 µM; GI50 (DMS 114 small cell lung): > 100 µM; GI50 (M19-MEL melanoma): > 100 µM; GI50 (SNB-78 CNS): > 100 µM

Row | SMILES | TGI (MDA-N) | TGI (RXF-631 renal) [µM] | TGI (DMS 273 small cell lung) [µM] | TGI (HOP-18 NSCLC) [µM] | TGI (DMS 114 small cell lung) [µM] | TGI (SNB-78 CNS) [µM] | TGI (KM20L2 colon) [µM] | TGI (M19-MEL melanoma) [µM] | TGI (XF 498 CNS) [µM] | also measured
21 | Cc1cccc(NC(=O)CC#N)c1Cl | – | – | > 100 | – | – | > 100 | > 100 | > 100 | > 100 | –
22 | CC1(C)OC(=O)C(=C2CC(c3ccccc3)c3ccccc32)C(=O)O1 (stereo not given) | – | > 100 | – | > 100 | > 100 | > 100 | > 100 | > 100 | – | –
23 | CCN(CC(COc1ccc2c(c1)[n+]([O-])nc(N)[n+]2[O-])OC(C)=O)C(C)=O (stereo not given) | > 100 µM | – | – | – | – | – | – | – | – | –
24 | BrC12c3ccccc3Sc3ccccc3C1(Br)c1ccccc12 (stereo not given) | – | 98.8 | 87.2 | > 100 | 64.8 | – | 41.6 | > 100 | – | –
25 | CC1=C(C(=O)Nc2ccccc2C)C(c2ccc(C3C(C(=O)Nc4ccccc4C)=CNC=C3C(=O)Nc3ccccc3C)cc2)C(C(=O)Nc2ccccc2C)=C(C)N1 | – | – | 47.3 | > 76 | > 60.5 | 96.4 | 28.6 | > 57.3 | 41.6 | –
26 | CC(=O)OCC1OC(Sc2ccccn2)C=CC1OC(C)=O (stereo not given) | – | – | > 100 | > 100 | > 100 | – | > 100 | > 100 | > 100 | –
27 | Oc1cc2c(cc1O)-c1[nH]ncc1CC2 | – | – | > 100 | 61.8 | 75.2 | > 100 | > 100 | > 100 | 86.7 | –
28 | COc1ccc(-c2coc3cc(OC)cc(O)c3c2=O)cc1 | > 100 µM | – | – | – | – | – | – | – | – | –
29 | CC(C)CC(=O)NS(=O)(=O)c1ccccc1 | – | > 100 | – | > 100 | > 100 | > 100 | > 100 | > 100 | > 100 | –
30 | CC1=C(c2cc(C(=O)Nc3nccs3)nc(NC#N)n2)Sc2ccccc2N1 | – | > 100 | > 100 | > 100 | – | – | > 100 | > 100 | > 100 | –
31 | CN(C)/C(N)=N/C(N)=S | – | > 100 | > 100 | > 100 | > 100 | > 100 | > 100 | > 100 | > 100 | –
32 | O=C(c1ccc2c3c(ccc(C(=O)C(F)(F)F)c13)CC2)C(F)(F)F | – | – | > 100 | > 100 | > 100 | > 100 | > 100 | > 100 | 50.2 | –
33 | CC(O[Si](C)(C)C)C1C=CC(C)n2c(=O)n(-c3ccccc3)c(=O)n21 (stereo not given) | – | – | – | > 100 | > 100 | > 100 | – | > 100 | – | –
34 | CCC(/C(=N\Nc1c(Cl)cc(Cl)cc1Cl)c1ccccc1)n1ccnc1C (stereo not given) | – | 25 | 19.7 | 30.1 | 22.3 | 42.2 | 17.5 | 29.7 | – | –
35 | O=C(O)C1OC(Oc2cc(O)c3c(=O)cc(-c4ccc(O)cc4)oc3c2)C(O)C(O)C1O (stereo not given) | – | – | > 100 | – | > 100 | > 100 | > 100 | > 100 | 83 | –
36 | C[n+]1ccc(-c2c3nc(c(-c4ccc5c(ccc[n+]5C)c4)c4ccc([nH]4)c(-c4cc[n+](C)cc4)c4nc(c(-c5ccc6c(ccc[n+]6C)c5)c5ccc2[nH]5)C=C4)C=C3)cc1 | > 50 µM | – | – | – | – | – | – | – | – | GI50 (MDA-N): 30 µM
37 | O=C1OC2C(O)C(=O)OC2C1O (stereo not given) | > 100 µM | – | – | – | – | – | – | – | – | –
38 | CCC/C(=N\NC(=O)c1cc2ccccc2cc1O)C(CC)C(=O)CCC(=O)N(Cc1ccccc1)Cc1ccccc1 (stereo not given) | – | > 100 | 52.8 | 91.1 | 59.7 | > 100 | > 100 | 48.6 | – | –
39 | CC(=O)c1ccc(NCN2C(=O)c3ccccc3C2=O)cc1 | > 100 µM | – | – | – | – | – | – | – | – | –
